Read-outs that look alike come from different tables or passages of the source.
How the values were obtained:
Sprague-Dawley rats = test: Dynorphin-induced spinal cord injury; format: in vivo, rat
Protocol: Dynorphin-induced spinal cord injury was performed according to Long et al., JPET, Vol. 269, No. 1, pp. 358-366 (1993). In brief, spinal subarachnoid injections were delivered using 30-gauge needles inserted between the L4-L5 vertebrae of male Sprague-Dawley rats (300-350 g). The rats were anesthetized with halothane and dorsal midline incisions were made immediately rostral to the pelvic girdle. By using the vertebral processes as guides, the needle was advanced to pass into the subarachnoid space surrounding the cauda equina. Correct needle placement was verified by CSF flow from the needle after its insertion. […] After injections, the incisions were treated with the topical antibacterial furazolidone and closed with wound clips. Rapid recovery from the halothane anesthesia enabled neurological evaluations to be made within 5 minutes of injections.
Neurological function was evaluated using a 5-point ordinal scale, with scores being assigned as follows: 4=normal motor function; 3=mild paraparesis, with the ability to support weight and walk with impairment; 2=paraparesis, with the ability to make walking movements without fully supporting weight; 1=severe paraparesis, in which rats could make limited hind limb movement, but not walking movement; and 0=flaccid paralysis, with complete absence of any hind limb movement. Neurological evaluations were made 24 hours after dynorphin A injection.
Differences in the neurological scores among treatment groups were determined by means of the Mann-Whitney U test or the Kruskal-Wallis test.

[1] = tested on: spinal cord organotypic cultures; test: ALS model: ChAT activity of spinal cord organotypic cultures with THA; format: cell-based, rat
Protocol: Organotypic cultures were prepared from lumbar spinal cord of 8 day old rats, as described by Rothstein et al., J. Neurochem., Vol. 65, No. 2 (1995), and Rothstein et al., Proc. Natl. Acad. Sci. USA, Vol. 90, pp. 6591-6595 (July 1993). In brief, lumbar spinal cords were removed and sliced into […]-thick-dorsal-ventral sections, and five slices were placed on Millipore CM semipermeable 30-mm-diameter membrane inserts. The inserts were placed on 1 ml of culture medium in 35-mm-diameter culture wells. Culture medium consisted of 50% minimal essential medium and phosphate-free HEPES (25 mM), 25% heat-inactivated horse serum, and 25 Hanks' balanced salt solution (GIBCO) supplemented with D-glucose (25.6 mg/ml) and glutamine (2 mM), at a final pH of 7.2. Antibiotic and antifungal agents were not used. Cultures were incubated at 37° C. in 5% CO2 containing humidified environment (Forma Scientific). Culture medium, along with any added pharmacological agents, was changed twice weekly.
Drugs were incubated for an additional 13 to 20 days with the 100 μM THA. At the end of this period, cultures were collected assayed for ChAT activity as described below.
To determine choline acetyltransferase (CHAT) activity, the spinal cord tissues in each dish (five slices) were pooled and frozen (-75° C.) until assay. CHAT activity was measured radiometrically by described methods using [^3 H]acetyl-CoA (Amersham; Fonnum, 1975). Protein content of tissue homogenate was determined by a Coomassi Protein Assay kit (Pierce, Rockford, Ill.).

LNCaP tumors = test: In vivo LNCaP tumor model, subcutaneous Compound 3; parameters: species or system ncr nude male mice
Protocol: Ncr nude male mice, age 5 to 6 weeks, were injected in the right flank with 5×10^6 LNCaP cells in Matrigel™ (0.1 ml total injection volume). […] Controls received 50 mM HEPES s.c. daily. Once tumors were palpable they were measured twice a week.
(§1) Response to treatment was monitored in two ways. First, mean tumor volume for each group was presented as tumor:control ratio (% T/C) and these values were compared at one point in time. Second, tumor volume versus time was monitored.

Dunning G tumors = test: In vivo Dunning G tumor model, subcutaneous Compound 3; parameters: species or system male Copenhagen syngenic rats
Protocol: Male Copenhagen syngenic rats, age 8 to 10 weeks, were injected in both flanks with 10^7 Dunning G cells. […] Controls received 50 mM HEPES s.c. daily. Tumors were measured twice a week.
as §1

male Long-Evans rats = test: Nicotine self-administration in male Long-Evans rats; format: in vivo, rat; details: 200 mg/kg
Protocol: Male Long-Evans rats were trained to self-administer nicotine on a fixed ratio schedule of reinforcement, as described by Corrigall et al., Psychopharmacology, Vol. 104, No. 2, pp. 171-176 (1991) and Corrigall et al., Psychopharmacology, Vol. 107, Nos. 2-3, pp. 285-289 (1992). In brief, male Long-Evans rats were food deprived for a short period of time (24-48 hours) and trained to press a lever in an operant responding chamber on an FR-1 schedule of food reinforcement. Once trained, each rat was surgically prepared with a chronic intravenous catheter implanted into the jugular vein. The rats were allowed 1 week to recover from surgery.
After 1 week, nicotine self-administration studies were initiated on an FR-1 with a 60 second signaled time-out following each infusion. During time-out, responding on the lever had no scheduled consequence. Nicotine self-administration sessions were 60 minutes in duration. Each nicotine infusion contained 30 μg of nicotine/kg rat and were delivered in a volume of 54 μl over an infusion duration of 0.3 seconds. […] Food intake was monitored during the nicotine self-administration sessions to assess non-specific drug effects.

extracellular glutamate = test: Stroke-induced rise in brain glutamate levels (microdialysis); format: in vivo, Sprague Dawley rats; details: 100 mg/kg IP then 20 mg/kg/hr IV
alcohol-preferring rats = test: Ethanol consumption in alcohol-preferring rats; format: in vivo, rat; details: for reduction of ethanol consumption: p<0.05
Protocol: A within-subject design was used where 2-(phosphonomethyl)pentanedioic acid treatments were tested once per week. Baseline ethanol drinking consisted of the mean of the 3 days prior to testing in which saline injections were given. […] 24 hour water and daily body weights were recorded to assess non-specific drug effects. Results were analyzed using paired t-tests with baseline and test day values serving as the independent variables. Ethanol intake was recorded as amount of solution consumed (mls).

mice = test: In vivo toxicity of NAALADase inhibitors (5-day survival); details: 1 to 500 mg/kg
From the text: The mice were subsequently observed two times per day for 5 consecutive days. The survival rate at each dose level is provided below in TABLE II.

Protocol for LNCaP cells: On the 7th day, the cells are pulsed with 3H-thymidine for 4 hours, harvested and measured for radioactivity. Values represent means +/- SEM of 6 separate cell wells for each treatment. All experiments are performed at least twice.
LNCaP cells are obtained from Dr. William Nelson at the Johns Hopkins School of Medicine in Baltimore, Md. DU145 cells are obtained from American Type Culture Collection (Rockville, Md.). Cells are grown in RPMI-1640 media supplemented with 5% heat-inactivated fetal calf serum, 2 mM-glutamine, 100 units/ml penicillin, and 100 μg/ml streptomycin (Paragon) in a humidified incubator at 37° C. in a 5% CO2 /95% air atmosphere.
The cells are suspended at 1×10^3 cells/ml in RPMI-1640 media and seeded into 24-well plates at 500 μl per well. […] 5 ml UltimaGold (Packard) scintillation cocktail is added and radioactivity is quantitated using a Beckman LS6001 scintillation counter.

For `O=C(O)CCC(CP(=O)(O)O)C(=O)O` (centres unmarked) [Compound 3, 2-(phosphonomethyl)pentanedioic acid], the “motor scores (in words)” value (Sprague-Dawley rats; 4 μmoles with dynorphin A, 24 hours, p<0.05 vs vehicle) was “significant improvement in motor scores”, the rats ambulatory (Sprague-Dawley rats; 24 hours post-injection, 15 rats, vehicle 14%, p<0.05) was 73% and the “protection against dynorphin-induced spinal cord injury (in words)” value (Sprague-Dawley rats; rat, in vivo) was “provides effective protection against dynorphin-induced spinal cord injury”. For the same compound, the “protection against THA-induced toxicity (in words)” value ([1]; 1 nM to 10 μM, THA 100 μM, 14 days) was “dose-dependent protection against THA-induced toxicity with maximal effects at 1 μM”, the “protection from THA toxicity (in words)” value ([1]; 100 nM - 10 μM with THA) was “significantly protected the cultures from THA toxicity” and the “ChAT Activity” value ([1]; 2-(phosphonomethyl)pentanedioic acid alone) was 108 ± 18.4 % of Control. For the same compound, the “ChAT Activity” value ([1]; with THA) was 121 ± 18.8 % of Control, the “effect on tumor growth (in words)” value (LNCaP tumors; 1 mg/kg s.c.) was “no effect on tumor growth” and the “effect on tumor growth (in words)” value (LNCaP tumors; 3 mg/kg s.c.) was “no effect on tumor growth”. The “tumor growth, % of controls” value (LNCaP tumors; 10 mg/kg s.c., day 86, p=0.006) was 24 % of controls, the “effect on tumor growth (in words)” value (LNCaP tumors; 30 mg/kg s.c.) was “no effect on tumor growth” and the “effect on tumor growth (in words)” value (Dunning G tumors; 1 mg/kg s.c.) was “no effect on tumor growth”. For the same compound, the “effect on tumor growth (in words)” value (Dunning G tumors; 3 mg/kg s.c.) was “no effect on tumor growth”, the “tumor size, % of controls” value (Dunning G tumors; 10 mg/kg s.c., p=0.03) was 38 % of controls and the “tumor size, % of controls” value (Dunning G tumors; 30 mg/kg s.c.) was 22 % of controls. For the same compound, the “3H-Thymidine Incorporation” value (LNCaP cells; 10 pM) was 3078 ± 1006 dpm/well, the “3H-Thymidine Incorporation” value (LNCaP cells; 100 pM) was 2062 ± 595 dpm/well and the “3H-Thymidine Incorporation” value (LNCaP cells; 1 nM) was 1001 ± 52 dpm/well. The “3H-Thymidine Incorporation” value (LNCaP cells; 10 nM) was 664 ± 366 dpm/well, the “cumulative food intake (in words)” value (male Long-Evans rats; 1 hour) was “decreased” and the nicotine self-administration (male Long-Evans rats; 1 hour access period, reduced from 23) was 5 infusions. For the same compound, the “stroke-induced glutamate changes, parietal cortex (in words)” value (extracellular glutamate; p<0.01) was “completely prevented concurrent glutamate changes in the parietal cortex”, the “stroke-induced extracellular glutamate increase, striatum (in words)” value (extracellular glutamate; p<0.05) was “significantly attenuated stroke-induced extracellular glutamate increases in the striatum” and the “glutamate, frontal cortex (in words)” value (extracellular glutamate; vs vehicle) was “no subsequent difference between the vehicle and 2-(phosphonomethyl)pentanedioic acid treated groups”. The “reduction of ethanol consumption” value (alcohol-preferring rats; 50 mg/kg IP, 1 hour access) was “approximately 25%”, the ethanol intake (alcohol-preferring rats; 50 mg/kg, saline baseline 8.1±0.6) was 6.2±0.9 mls and the “reduction of ethanol consumption” value (alcohol-preferring rats; 100 mg/kg IP, 1 hour access) was “approximately 25%”. For the same compound, the ethanol intake (alcohol-preferring rats; 100 mg/kg, saline baseline 7.8±0.8) was 5.8±0.7 mls, the “effect on ethanol consumption (in words)” value (alcohol-preferring rats; 200 mg/kg IP, 1 hour access) was “no effect” and the ethanol intake (alcohol-preferring rats; 200 mg/kg, saline baseline 8.9±0.7) was 8±0.5 mls. The “body weights and 24 hour water intakes (in words)” value (alcohol-preferring rats; 50, 100, 200 mg/kg) was “not altered at any of the 3 doses” and the “toxicological effect (in words)” value (mice) was “non-toxic to mice”.

— patent publication US6121252A, “Phosphinic acid derivatives” (priority 1998, dated 2000)
